Experimental data: ChEMBL document CHEMBL5370670, “Anti-MRSA Dimeric and Brominated Phenyltetracenoids Produced by Streptomyces morookaense SC1169” (J Nat Prod, 2023)
Converted amounts (≈) assume the structure as drawn. Where a name gives a salt, the structure may show the parent alone.

How the values were obtained:
Staphylococcus aureus [1] = experiment: Antibacterial activity against Staphylococcus aureus ATCC 6538 incubated for 6 to 8 hrs by microplate Alamar Blue assay; assay type: functional; conditions: time 6-8 hrs
Staphylococcus aureus [2] = experiment: Antibacterial activity against methicillin-resistant Staphylococcus aureus incubated for 6 to 8 hrs by microplate Alamar Blue assay; assay type: functional; conditions: time 6-8 hrs
Enterococcus faecium [3] = experiment: Antibacterial activity against Enterococcus faecium incubated for 6 to 8 hrs by microplate Alamar Blue assay; assay type: functional; conditions: time 6-8 hrs
Enterococcus faecium [4] = experiment: Antibacterial activity against vancomycin-resistant Enterococcus faecium incubated for 6 to 8 hrs by microplate Alamar Blue assay; assay type: functional; conditions: time 6-8 hrs
A549 = experiment: Cytotoxicity against human A549 cells assessed as cell growth inhibition incubated for 48 hrs by MTT assay; assay type: functional, cell-based; conditions: A549, 48 h
HeLa = experiment: Cytotoxicity against human HeLa cells assessed as cell growth inhibition incubated for 48 hrs by MTT assay; assay type: functional, cell-based
HepG2 = experiment: Cytotoxicity against human HepG2 cells assessed as cell growth inhibition incubated for 48 hrs by MTT assay; assay type: functional, cell-based; conditions: HepG2, 48 h
MCF7 = experiment: Cytotoxicity against human MCF7 cells assessed as cell growth inhibition incubated for 48 hrs by MTT assay; assay type: functional, cell-based; conditions: MCF7, 48 h
[5] = Cytotoxicity against African green monkey Vero cells assessed as cell growth inhibition incubated for 48 hrs by MTT assay; assay type: toxicity, cell-based; conditions: African green monkey (Chlorocebus sabaeus)
[6] = Selectivity index, ratio of IC50 for cytotoxicity against African green monkey Vero cells to IC50 for cytotoxicity against human A549 cells; assay type: toxicity, cell-based; conditions: Vero cells and A549 cells, read-out: Ratio IC50

SMILES	MIC (Staphylococcus aureus [1]) [µg/mL]	MIC (Staphylococcus aureus [2]) [µg/mL]	MIC (Enterococcus faecium [3]) [µg/mL]	MIC (Enterococcus faecium [4]) [µg/mL]	IC50 (A549) [µM]	IC50 (HeLa) [µM]	IC50 (HepG2) [µM]	IC50 (MCF7) [µM]	IC50 at 48 h [5] [µM]	selectivity ratio [6]
COc1cc(C)c(-c2cc(O)c(Br)c3cc4c(c(O)c23)C(=O)c2c(cc(OC)c(Br)c2O)C4(C)C)c(O)c1	1.3 (≈ 2.02 µM)	1.3 (≈ 2.02 µM)	2.5 (≈ 3.88 µM)	2.5 (≈ 3.88 µM)	2.8	1.7	5.9	4.6	15.1	
NC[C@H]1O[C@H](O[C@H]2[C@H](O)[C@@H](O[C@H]3O[C@H](CO)[C@@H](O)[C@H](N)[C@H]3O)[C@H](N)C[C@@H]2N)[C@H](O)[C@@H](O)[C@@H]1O [KANAMYCIN]	1.3 (≈ 2.68 µM)									
COc1cc(C)c(-c2cc(OC)cc3cc4c(c(O)c23)C(=O)c2c(OC)cc(OC)cc2C4(C)C)c(O)c1	> 10	> 10	> 10		6	7.7	5.8	9.2	9	
COc1cc(C)c(-c2cc(O)cc3cc4c(c(O)c23)C(=O)c2c(cc(OC)c(Br)c2OC)C4(C)C)c(O)c1	5 (≈ 8.63 µM)	5 (≈ 8.63 µM)	5 (≈ 8.63 µM)	5 (≈ 8.63 µM)	4.7	5.1	5.7	8.6	5.8	
COc1cc(C)c(-c2cc(OC)cc3cc4c(c(O)c23)C(=O)c2c(cc(O)c(Br)c2O)C4(C)C)c(O)c1	1.3 (≈ 2.3 µM)	1.3 (≈ 2.3 µM)	1.3 (≈ 2.3 µM)	2.5 (≈ 4.42 µM)	3.3	3.6	5.2	8.9	9	
COc1cc(C)c(-c2cc(O)c(Cl)c3cc4c(c(O)c23)C(=O)c2c(cc(OC)c(Cl)c2O)C4(C)C)c(O)c1	2.5 (≈ 4.5 µM)	2.5 (≈ 4.5 µM)	2.5 (≈ 4.5 µM)	2.5 (≈ 4.5 µM)						
COc1cc(C)c(-c2cc(O)cc3cc4c(c(O)c23)C(=O)c2c(cc(OC)c(Br)c2O)C4(C)C)c(O)c1	0.6 (≈ 1.06 µM)	0.6 (≈ 1.06 µM)	1.3 (≈ 2.3 µM)	1.3 (≈ 2.3 µM)	2.5	4.1	3.5	3.1	2.8	
COc1cc(-c2c(O)cc(OC)c(Cc3c(OC)cc(C)c(-c4cc(OC)cc5cc6c(c(O)c45)C(=O)c4c(O)cc(O)cc4C6(C)C)c3O)c2C)c2c(O)c3c(cc2c1)C(C)(C)c1cc(O)cc(O)c1C3=O	> 10	> 10	> 10		> 50	> 50	> 50	> 50	> 50	
COc1cc(-c2c(O)cc(OC)c(Cc3c(OC)cc(O)c(-c4cc(OC)cc5cc6c(c(O)c45)C(=O)c4c(O)cc(O)cc4C6(C)C)c3C)c2C)c2c(O)c3c(cc2c1)C(C)(C)c1cc(O)cc(O)c1C3=O	2.5 (≈ 2.54 µM)	2.5 (≈ 2.54 µM)	> 10		5.7	15.8	16.7	17.2	17.6	3
COc1cc(C)c(-c2cc(O)cc3cc4c(c(O)c23)C(=O)c2c(O)cc(OC)cc2C4(C)C)c(O)c1	2.5 (≈ 5.14 µM)	2.5 (≈ 5.14 µM)	1.3 (≈ 2.67 µM)	2.5 (≈ 5.14 µM)	5.3	6.5	7	16.5	6.7	
COc1cc(-c2c(O)cc(OC)c(OC)c2C)c2c(O)c3c(cc2c1)C(C)(C)c1cc(O)cc(O)c1C3=O	5 (≈ 9.68 µM)	5 (≈ 9.68 µM)	5 (≈ 9.68 µM)	5 (≈ 9.68 µM)	6.3	11.1	4.8	12.3	4.5	
COC1=CC(=O)C(c2cc(OC)cc3cc4c(c(O)c23)C(=O)c2c(O)cc(O)cc2C4(C)C)=C(C)C1=O	> 10	> 10	> 10		8.9	14.6	12.4	9.6	15.1	
COc1cc(C)c(-c2cc(O)cc3cc4c(c(O)c23)C(=O)c2c(cc(OC)c(Cl)c2O)C4(C)C)c(O)c1	2.5 (≈ 4.8 µM)	2.5 (≈ 4.8 µM)	2.5 (≈ 4.8 µM)	2.5 (≈ 4.8 µM)						
COc1cc(C)c(-c2cc(OC)cc3cc4c(c(O)c23)C(=O)c2c(O)cc(OC)cc2C4(C)C)c(O)c1	> 10	> 10	> 10		4.6	6.7	2.7	6.2	7.6	
COc1cc(C)c(-c2cc(OC)cc3cc4c(c(O)c23)C(=O)c2c(O)cc(O)cc2C4(C)C)c(O)c1	1.3 (≈ 2.67 µM)	1.3 (≈ 2.67 µM)	1.3 (≈ 2.67 µM)	1.3 (≈ 2.67 µM)						
COc1cc(C)c(-c2cc(OC)cc3cc4c(c(O)c23)C(=O)c2c(cc(OC)c(Br)c2O)C4(C)C)c(O)c1	> 10	> 10	> 10		3.3	1.7	4.7	7.9	7.3	
COc1cc(C)c(-c2cc(OC)c(Br)c3cc4c(c(O)c23)C(=O)c2c(O)cc(O)cc2C4(C)C)c(O)c1	1.3 (≈ 2.3 µM)	1.3 (≈ 2.3 µM)	1.3 (≈ 2.3 µM)	1.3 (≈ 2.3 µM)	3.1	5.8	4.5	5.3	5.7	
COc1cccc2c1C(=O)c1c(O)c3c(c(O)c1C2=O)C[C@@](O)(C(=O)CO)C[C@@H]3O[C@H]1C[C@H](N)[C@H](O)[C@H](C)O1 [DOXORUBICIN HYDROCHLORIDE]					0.7		0.8			
CN[C@H](CC(C)C)C(=O)N[C@H]1C(=O)N[C@@H](CC(N)=O)C(=O)N[C@H]2C(=O)N[C@H]3C(=O)N[C@H](C(=O)N[C@H](C(=O)O)c4cc(O)cc(O)c4-c4cc3ccc4O)[C@H](O)c3ccc(c(Cl)c3)Oc3cc2cc(c3O[C@@H]2O[C@H](CO)[C@@H](O)[C@H](O)[C@H]2O[C@H]2C[C@](C)(N)[C@H](O)[C@H](C)O2)Oc2ccc(cc2Cl)[C@H]1O [VANCOMYCIN]		0.6 (≈ 0.414 µM)	1.3 (≈ 0.897 µM)	> 40						
COc1cc(C)c(C(=O)c2c(CC(C)=O)cc3c(c2O)C(=O)c2c(cc(OC)c(Br)c2OC)C3(C)C)c(OC)c1	> 10	> 10	> 10		10.2	12.6	13.6	12.3	> 50	
